Test results taken from patent US7211561B2, “Method for inducing selective cell death of malignant cells by activation of calcium-activated potassium channels (KCa)” (Cedars-Sinai Medical Center, priority 2001, dated 2007).

Assays:
U87 human glioma cells = experiment: In vitro apoptosis assay (Annexin V-FITC/propidium iodide, FACS); format: cell-based
Method: (§1) Human glioma cells (U-87) and HBMVECells were seeded into a 25-mL tissue-culture flask. After 24 h (about 60–70% confluencey), cells were treated with either […] (50 or 100 micrograms/mL) or staurosporine (positive control; 5 μM), a known inducer of apoptosis (Tamaoki, T., et al., Staurosporine, a potent inhibitor of phospholipid/Ca^++ dependent protein kinase, Biochem. Biophys. Res. Commun. 135: 397–402 [1986]; Matsumoto, H., and Sasaki, Y., Staurosporine, a protein kinase C inhibitor interferes with proliferation of arterial smooth muscle cells, Biochem. Biophys. Res. Commun. 158:105–109 [1989]). U-87 cells were returned to the CO2 incubator and incubated overnight. The following day, cells were washed twice with fresh growth medium and cells prepared for FACS analysis as described hereinbelow.
The changes in plasma membrane are one of the earliest events in cell death. In apoptotic cells the membrane phospholipid phosphatidylserine (PS) is translocated from the inner to the outer leaflet of the cell membrane in the early phases of apoptosis. Annexin V is a Ca^2+-dependent, phospholipid-binding protein that binds to PS with high affinity. Consequently, Annexin V (PharMingen) conjugated to a label, such as fluorescein isothiocyanate (FITC) or biotin, serves as a sensitive probe for flow cytometry analysis of cells that are undergoing apoptosis. […] (PharMingen; Vermes, I. et al., A novel assay for apoptosis. Flow cytometric detection of phosphatidylserine expression on early apoptotic cells using fluorescein labelled Annexin V, J. Immunol. Meth. 184:39–51 [1995]). Concurrently, propidium iodide is typically used as a standard flow cytometric viability probe, because the intact cell membranes of viable cells exclude propidium iodide, whereas the cell membranes of dead and damaged cells are permeable to propidium iodide. Cells that stain positive for Annexin V and negative for propidium iodide are undergoing apoptosis; cells that stain positive for both Annexin V and propidium iodide are either at the end stage of apoptosis, are undergoing necrosis, or are already dead; and cells that stain negative for both Annexin V-biotin and propidium iodide are alive and not undergoing measurable apoptosis. Briefly, the cells were washed twice with cold PBS and then resuspended in 1× binding buffer (10 mM HEPES/NaOH, pH 7.4, 140 mM NaCl, 2.5 mM CaCl2; 4° C.) at a concentration of about 1×10^6 cells/mL. A 100-μL aliquot of cell suspension was transferred to 5-mL culture tubes, and 2.5 μL of Annexin V-FITC and 2.5-μL of propidium iodide (PharMingen) were added to each tube. The cell suspensions were gently mixed and incubated for 15 min at room temperature in the dark, after which 400 μL of binding buffer was added to each tube of cells. […]

[1] = system: implanted RG2 glioma tumor in Wistar rats; experiment: In vivo apoptosis, intracarotid infusion, implanted tumor tissue (FACS); design: species or system rat; conditions: for apoptotic cells / necrotic cells / apoptosis / necrosis: RG2 tumor
Text: (§2) The changes in plasma membrane are one of the earliest events in cell death. In apoptotic cells the membrane phospholipid phosphatidylserine (PS) is translocated from the inner to the outer leaflet of the cell membrane in the early phases of apoptosis. Annexin V is a Ca^2+-dependent, phospholipid-binding protein that binds to PS with high affinity. Consequently, Annexin V (PharMingen) conjugated to a label, such as fluorescein isothiocyanate (FITC) or biotin, serves as a sensitive probe for flow cytometry analysis of cells that are undergoing apoptosis. […] (PharMingen; Vermes, I. et al., A novel assay for apoptosis. Flow cytometric detection of phosphatidylserine expression on early apoptotic cells using fluorescein labelled Annexin V, J. Immunol. Meth. 184:39–51 [1995]). Concurrently, propidium iodide is typically used as a standard flow cytometric viability probe, because the intact cell membranes of viable cells exclude propidium iodide, whereas the cell membranes of dead and damaged cells are permeable to propidium iodide. Cells that stain positive for Annexin V and negative for propidium iodide are undergoing apoptosis; cells that stain positive for both Annexin V and propidium iodide are either at the end stage of apoptosis, are undergoing necrosis, or are already dead; and cells that stain negative for both Annexin V-biotin and propidium iodide are alive and not undergoing measurable apoptosis. Briefly, the cells were washed twice with cold PBS and then resuspended in 1× binding buffer (10 mM HEPES/NaOH, pH 7.4, 140 mM NaCl, 2.5 mM CaCl2; 4° C.) at a concentration of about 1×10^6 cells/mL. A 100-μL aliquot of cell suspension was transferred to 5-mL culture tubes, and 2.5 μL of Annexin V-FITC and 2.5-μL of propidium iodide (PharMingen) were added to each tube. The cell suspensions were gently mixed and incubated for 15 min at room temperature in the dark, after which 400 μL of binding buffer was added to each tube of cells. The cells were then washed once with 1×binding buffer. Analysis by flow cytometry was then conducted immediately, and no later than within one hour. The resulting analytic FACS graphs were typically divided into four quadrants wherein the upper right (UR) quadrant represented the number of necrotic cells; the lower left (LL) quadrant represented the number of viable cells; the lower right (LR) quadrant represented the number of apoptotic cells; and the upper left (UL) represented cells of an intermediate category, which generally represents cell debris and DNA fragments. The percentage of gated events in each quadrant was used to determine the total percentage of apoptotic and necrotic cells in each cell suspension.
A rat tumor model, which consisted of intracranially implanted RG2 cells (rat glioma cell line) in Wistar rats, was employed to investigate whether any of several potassium channel activators induce selective apoptosis of tumor cells in vivo.
The techniques for RG2 cell propagation and maintenance in tissue culture have been described (Sugita, M. and Black, K. L., Cyclic GMP-specific phosphodiesterase inhibition and intracarotid bradykinin infusion enhances permeability into brain tumors, Cancer Res. 58(5):914–20 [1998]; Inamura et al. [1994]; Nakano, S. et al., Increased brain tumor microvessel permeability after intracarotid bradykinin infusion is mediated by nitric oxide, Cancer Res. 56(17):4027–31 [1996]). Briefly, RG2 cells derived from a rat glioma are kept frozen until use, then are thawed and maintained in a monolayer culture in F12 medium with 10% calf serum.
The Wistar rats (approximately 140–160 g body weight) were anesthetized with intra-peritoneal ketamine (50 mg/kg), and glial cells (1×10^5) were implanted into the right hemisphere, but not the contralateral hemisphere, by intracerebral injection suspended in 5 μL F12 medium (1–2% methylcellulose) by a Hamilton syringe. The implantation coordinates were 3-mm lateral to the bregma and 4.5 mm deep to the dural surface. […]

[2] = system: contralateral normal brain tissue of Wistar rats with implanted RG2 tumor; experiment: In vivo apoptosis, intracarotid infusion, contralateral tissue (FACS); conditions: 20 μg/kg body mass bolus, positive control (FIG. 8J)
Text: (§3) The changes in plasma membrane are one of the earliest events in cell death. In apoptotic cells the membrane phospholipid phosphatidylserine (PS) is translocated from the inner to the outer leaflet of the cell membrane in the early phases of apoptosis. Annexin V is a Ca^2+-dependent, phospholipid-binding protein that binds to PS with high affinity. Consequently, Annexin V (PharMingen) conjugated to a label, such as fluorescein isothiocyanate (FITC) or biotin, serves as a sensitive probe for flow cytometry analysis of cells that are undergoing apoptosis. […] (PharMingen; Vermes, I. et al., A novel assay for apoptosis. Flow cytometric detection of phosphatidylserine expression on early apoptotic cells using fluorescein labelled Annexin V, J. Immunol. Meth. 184:39–51 [1995]). Concurrently, propidium iodide is typically used as a standard flow cytometric viability probe, because the intact cell membranes of viable cells exclude propidium iodide, whereas the cell membranes of dead and damaged cells are permeable to propidium iodide. […]

primary human GBM cells = experiment: In vitro apoptosis assay (Annexin V-FITC/propidium iodide, FACS); format: cell-based; conditions: 50 μg/mL (FIG. 7A)
Text: as §3

non-malignant HBMVEC = experiment: as above; format: cell-based, human; conditions: 50 μg/mL (FIG. 7C)
Method: as §1
The changes in plasma membrane are one of the earliest events in cell death. In apoptotic cells the membrane phospholipid phosphatidylserine (PS) is translocated from the inner to the outer leaflet of the cell membrane in the early phases of apoptosis. Annexin V is a Ca^2+-dependent, phospholipid-binding protein that binds to PS with high affinity. Consequently, Annexin V (PharMingen) conjugated to a label, such as fluorescein isothiocyanate (FITC) or biotin, serves as a sensitive probe for flow cytometry analysis of cells that are undergoing apoptosis. […]

malignant C6 cells = experiment: as above; format: cell-based, rat; conditions: 50 μg/mL (FIG. 6C)
Text: as §2

malignant RG2 cells = experiment: as above; format: cell-based, rat; conditions: 50 μg/mL (FIG. 6A)
Text: as §2

malignant 9L cells = experiment: as above; format: cell-based, rat; conditions: 50 μg/mL (FIG. 6E)
Text: as §2

[3] = system: human normal fetal astrocytes (HFA); experiment: Cell proliferation assay (WST-1, OD 450 nm); format: cell-based
Method: (§4) Primary cell lines were prepared from human gliomas (glioblastoma multiforme [GBM] or astrocytoma) or established rat glioma cell lines (RG2, C6 and 9L) were used. Cultured human normal cell lines, brain microvessel endothelial cells (HBMVEC), or fetal astrocytes were used.
(§5) Cells (5×10^4 cells) were cultured in each well of 96-well microtiter culture plates and were allowed to achieve confluency to form a monolayer of cells in each well. For dose response studies cells were incubated with different concentrations (1–100 μg/mL) of NS-1619 or minoxidil sulfate for 4 hours at 37° C. in a CO2 (5%) incubator. Cells washed twice carefully with respective medium, and allowed to incubate overnight at 37° C. under 5% CO2. The following day, cells were incubated with WST-1 reagent (Boehringer Mannheim) at 37° C. in a CO2 (5%) incubator for 60–90 minutes, and optical density at 450 nm was measured with a 96-well plate reader. The magnitude of OD indicated the number of viable cells, greater the OD, higher the number of viable cells, correlated a standard curve of cell numbers.

C6 rat glioma cells = experiment: Cell proliferation assay (WST-1, OD 450 nm); format: cell-based; conditions: 1–100 μg/mL, 4 hours, dose-dependent (FIG. 1)
Method: as §4, §5

[4] = system: primary human astrocytoma cell line; experiment: Cell proliferation assay (WST-1, OD 450 nm); format: cell-based; conditions: 1–100 μg/mL, 4 hours, dose-dependent (FIG. 2)
Method: as §4, §5

[5] = system: human normal brain microvessel endothelial cells (HBMVEC); experiment: Cell proliferation assay (WST-1, OD 450 nm); format: cell-based
Method: as §4, §5

RG2 rat glioma cells = experiment: Cell proliferation assay (WST-1, OD 450 nm); format: cell-based
Method: as §4, §5

9L rat glioma cells = experiment: Cell proliferation assay (WST-1, OD 450 nm); format: cell-based; conditions: 1–100 μg/mL, 4 hours, dose-dependent (FIG. 1)
Method: as §4, §5

[6] = system: primary human GBM glioma cell line; experiment: Cell proliferation assay (WST-1, OD 450 nm); format: cell-based
Method: as §4, §5

Solubility in water = format: physicochemical
Text: The skilled practitioner is cautious in regulating the final concentration of solvent in the infusion solution to avoid solvent-related toxicity. For example, a final ethanol concentration in an infusion solution up to 5–10% (v/v) is tolerated by most mammalian subjects with negligible toxicity.

[7] = system: PTK activity in RG2 cell lysate; experiment: Protein tyrosine kinase (PTK) assay; format: biochemical, rat; conditions: 1–50 μM (FIG. 10)
Method: A PTK assay kit (The Oncogene Research Products, Boston, Mass.) was used to determine the presence and relative amounts of protein kinase activity in tissue cytosols and cell extracts. Briefly, 1×10^4 RG2 cells seeded in a 50-mL culture flask, and allowed to achieve confluency to form a monolayer at 37° C. in a CO2 incubator.
Briefly, RG2 cells were harvested after trypsinization, and cells were pelleted by centrifugation. Cells were resuspended with extraction buffer (20 mM Tris, pH 7.4, 50 mM NaCl, 1 mM EDTA, 1 mM EGTA, 0.2 mM PMSF, 1 μg/mL pepstatin, 0.5 μg/mL leupetin, 0.2 mM Na3VO4, 5 mM mercaptoethanol, 0.1% Triton X-100), and cells were lysed using a cell homogenizer. After centrifugation, supernatant was separated from the pellet for PTK assay. The supernatant was treated with superoxide dismutase. Pervanadate (100 mM) was used in the PTK assay to inhibit […] activity, and protein concentration was determined by Lowry's method using a Bio-Rad protein assay kit. […]
Assay for PTK activity in RG2 cell-lysates was then performed according to the protocol supplied by the PTK assay kit's manufacturer. After adding the stop solution, absorbance measured in each well at 450 nm using a Spectramax Plus (Molecular Devices, Sunnyvale, Calif.).

[8] = 5 μM, positive control (FIG. 5C)
[9] = 20 μg/kg body mass bolus, positive control (FIG. 8I)
[10] = 50 μg/kg body mass, two consecutive daily doses, intracarotid (FIG. 8C)
[11] = 100 μg/kg body mass, three consecutive daily bolus doses (FIG. 9C)
[12] = 100 μg/kg body mass/day for two days, another rat (FIG. 8G)
[13] = 100 μg/kg body mass/day for two days, one rat (FIG. 8E)

SMILES: CN[C@@H]1C[C@H]2O[C@@](C)([C@@H]1OC)n1c3ccccc3c3c4c(c5c6ccccc6n2c5c31)C(=O)NC4 [staurosporin]
- apoptotic cells (U87 human glioma cells; [8]): 31%
- necrotic cells (U87 human glioma cells; [8]): 27%
- apoptotic cells [1, 9]: 35%
- necrotic cells [1, 9]: 17%
- apoptotic cells [2]: 5%
- necrotic cells [2]: 11%

SMILES: O=c1[nH]c2cc(C(F)(F)F)ccc2n1-c1cc(C(F)(F)F)ccc1O [NS-1619, 1,3-dihydro-1-[2-hydroxy-5-(trifluoromethyl)phenyl]-5-(trifluoromethyl)-2H-benzimidazol-2-one]
- apoptosis (primary human GBM cells): 24%
- necrosis (primary human GBM cells): 49%
- apoptosis (non-malignant HBMVEC): 4%
- induction of necrosis (non-malignant HBMVEC): did not significantly induce
- apoptotic cells (malignant C6 cells): 25%
- necrotic cells (malignant C6 cells): 35%
- apoptosis (malignant RG2 cells): 29%
- necrosis (malignant RG2 cells): 29%
- apoptotic cells (malignant 9L cells): 42%
- necrotic cells (malignant 9L cells): 32%
- sensitivity (cell death) ([3]; HFA, 50 μg/mL (FIG. 4)): insensitive
- cell proliferation ([3]; normal HFA, 1–100 μg/mL, 4 hours (FIG. 2)): without affecting
- cell proliferation (C6 rat glioma cells): significantly blocks cell proliferation
- cell proliferation [4]: significantly blocked cell proliferation
- sensitivity (cell death) ([5]; HBMVEC, 50 μg/mL (FIG. 4)): insensitive
- cell proliferation ([5]; normal HBMVEC, 1–100 μg/mL, 4 hours (FIG. 2)): without affecting
- cell death (RG2 rat glioma cells; 50 μg/mL (FIG. 3)): 70%
- cell proliferation (RG2 rat glioma cells; 1–100 μg/mL, 4 hours, dose-dependent (FIG. 1)): significantly blocks cell proliferation
- cell proliferation (9L rat glioma cells): significantly blocks cell proliferation
- cell death ([6]; 50 μg/mL (FIG. 4)): 90%
- cell proliferation ([6]; 1–100 μg/mL, 4 hours, dose-dependent (FIG. 2)): significantly blocked cell proliferation
- apoptotic cells (U87 human glioma cells; 50 μg/mL): 21%
- necrotic cells (U87 human glioma cells; 50 μg/mL): 14%
- solubility in water (Solubility in water): not easily dissolved in water
- apoptotic cells [1, 10]: 28%
- necrotic cells [1, 10]: 24%
- apoptosis [1, 11]: 55%
- necrosis [1, 11]: 9%
- apoptosis [1, 12]: 34%
- necrosis [1, 12]: 9%
- apoptosis [1, 13]: 44%
- necrosis [1, 13]: 15%
- cell death in tumor tissue ([1]; infusion for two or three consecutive days at up to 100 μg/kg body mass): inducing a selective cell death in tumor tissue
- PTK activity [7]: did not significantly affect PTK activity
